Measurements from ChEMBL document CHEMBL1153531, “1- or 3-(3-Amino-2-hydroxy-1-phenyl propyl)-1,3-dihydro-2H-benzimidazol-2-ones: potent, selective, and orally efficacious norepinephrine reuptake inhibitors” (J Med Chem, 2009).
Active and inactive are the calls of the source. The rule behind the calls is not given here.

How the values were obtained:
[1] = target: Sodium-dependent dopamine transporter (Homo sapiens) (UniProt Q01959); test: Inhibition of [3H]WIN-35428 binding to human recombinant DAT expressed in CHO cells by scintillation counting; type: cell-based
[2] = target: Sodium-dependent serotonin transporter (Homo sapiens) (UniProt P31645); test: Inhibition of [3H]hydroxytryptamine creatinine sulfate uptake at human SERT expressed in human JAR cells at 1 uM; type: cell-based
[3] = target: Sodium-dependent dopamine transporter (Homo sapiens) (UniProt Q01959); test: Inhibition of [3H]WIN-35428 binding to human recombinant DAT expressed in CHO cells at 10 uM by scintillation counting; type: cell-based
[4] = target: T1, Sodium-dependent noradrenaline transporter (Homo sapiens, UniProt P23975)
[5] = target: T1, Sodium-dependent noradrenaline transporter; test: biochemical
Homo sapiens = species: Homo sapiens; test: Selectivity […] human SERT to IC50 for human NET
JAR = test: Selectivity for human NET expressed in MDCK-Net6 cells over human SERT expressed in human JAR cells; type: cell-based
CHO = test: Selectivity for human NET expressed in MDCK-Net6 cells over human DAT expressed in CHO cells; type: cell-based
Rattus norvegicus [6] = test: Effect on temperature homeostasis in telemetric ovariectomy-induced thermoregulatory dysfunction Sprague-Dawley rat model assessed as duration of tail skin temperature reduction at 3 mg/kg, po; type: functional
Rattus norvegicus [7] = test: Effect on temperature homeostasis in telemetric ovariectomy-induced thermoregulatory dysfunction Sprague-Dawley rat model assessed as mean reduction in tail skin temperature at 3 mg/kg, po relative to baseline; type: functional
Rattus norvegicus [8] = test: Effect on temperature homeostasis in telemetric ovariectomy-induced thermoregulatory dysfunction Sprague-Dawley rat model assessed as maximum reduction in tail skin temperature at 3 mg/kg, po relative to baseline; type: functional
[9] = Plasma clearance in Sprague-Dawley rat at 5 mg/kg, iv; type: ADME, organism-based; set-up: dose 5 mg/kg, route intravenous
[10] = Cmax in Sprague-Dawley rat 10 mg/kg, po within 2 hrs; type: ADME, organism-based; set-up: dose 10 mg/kg, route oral; settings: in vivo
[11] = Tmax in Sprague-Dawley rat at 10 mg/kg, po; type: ADME, organism-based; set-up: dose 10 mg/kg, route oral; settings: in vivo
[12] = Terminal half life in Sprague-Dawley rat at 5 mg/kg, iv; type: ADME, organism-based; set-up: dose 5 mg/kg, route intravenous; settings: in vivo, read-out: beta t1/2 (converted)
[13] = Terminal half life in Sprague-Dawley rat at 10 mg/kg, po; type: ADME, organism-based; set-up: dose 10 mg/kg, route oral; settings: in vivo, read-out: beta t1/2 (converted)
[14] = AUC (0 to infinity) in Sprague-Dawley rat at 5 mg/kg, iv; type: ADME, organism-based; set-up: time infinity, dose 5 mg/kg, route intravenous; settings: plasma
[15] = AUC (0 to infinity) in Sprague-Dawley rat at 10 mg/kg, po; type: ADME, organism-based; set-up: time infinity, dose 10 mg/kg, route oral; settings: plasma
[16] = Oral bioavailability in Sprague-Dawley rat at 10 mg/kg; type: ADME, organism-based; settings: in vivo
[17] = target: Sodium-dependent serotonin transporter (Homo sapiens) (UniProt P31645); settings: JAR
[18] = target: Sodium-dependent dopamine transporter (Homo sapiens) (UniProt Q01959); test: Inhibition of [3H]WIN-35428 binding to human recombinant DAT expressed in CHO cells at 1 uM by scintillation counting; type: cell-based
Rattus norvegicus [19] = test: Analgesic activity in Sprague-Dawley rat acute analgesia model assessed as increase nocifensive latency at 10 mg/kg, po after 1 hr by hot plate assay; type: functional, organism-based; set-up: dose 10 mg/kg
Rattus norvegicus [20] = test: Analgesic activity in Sprague-Dawley rat acute analgesia model assessed as increase in nocifensive latency at 10 mg/kg, po after 3 hrs by hot plate assay; type: functional, organism-based; set-up: dose 10 mg/kg
Rattus norvegicus [21] = test: Analgesic activity in Sprague-Dawley rat acute analgesia model assessed as increase in nocifensive latency at 10 mg/kg, po after 5 hrs by hot plate assay; type: functional, organism-based; set-up: dose 10 mg/kg
Rattus norvegicus [22] = test: Antihyperalgesic in po dosed Sprague-Dawley rat spinal nerve ligation model of neuropathic pain assessed as complete hind paw withdrawal after 3 to 4 weeks post surgery by paw pressure technique analysis; type: functional, organism-based

Sequence of Sodium-dependent serotonin transporter (Homo sapiens) (P31645 whole entry, looked up): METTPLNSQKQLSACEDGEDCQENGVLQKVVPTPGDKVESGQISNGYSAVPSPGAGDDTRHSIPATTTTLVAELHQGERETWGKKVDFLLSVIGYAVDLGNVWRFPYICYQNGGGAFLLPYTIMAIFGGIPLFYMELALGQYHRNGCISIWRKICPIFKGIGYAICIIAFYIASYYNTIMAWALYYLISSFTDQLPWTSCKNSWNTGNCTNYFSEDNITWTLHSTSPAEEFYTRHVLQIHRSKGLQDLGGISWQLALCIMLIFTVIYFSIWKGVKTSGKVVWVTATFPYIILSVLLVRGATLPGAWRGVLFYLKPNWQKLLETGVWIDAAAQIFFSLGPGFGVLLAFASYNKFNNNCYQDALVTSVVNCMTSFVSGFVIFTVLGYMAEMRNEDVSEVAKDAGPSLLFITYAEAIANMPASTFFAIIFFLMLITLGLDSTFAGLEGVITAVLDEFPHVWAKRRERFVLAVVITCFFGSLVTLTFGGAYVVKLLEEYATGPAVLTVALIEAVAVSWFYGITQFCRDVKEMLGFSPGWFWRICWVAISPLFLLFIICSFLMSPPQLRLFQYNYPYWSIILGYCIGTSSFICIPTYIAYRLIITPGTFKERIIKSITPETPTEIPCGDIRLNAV
T1 sequence (P23975 whole entry): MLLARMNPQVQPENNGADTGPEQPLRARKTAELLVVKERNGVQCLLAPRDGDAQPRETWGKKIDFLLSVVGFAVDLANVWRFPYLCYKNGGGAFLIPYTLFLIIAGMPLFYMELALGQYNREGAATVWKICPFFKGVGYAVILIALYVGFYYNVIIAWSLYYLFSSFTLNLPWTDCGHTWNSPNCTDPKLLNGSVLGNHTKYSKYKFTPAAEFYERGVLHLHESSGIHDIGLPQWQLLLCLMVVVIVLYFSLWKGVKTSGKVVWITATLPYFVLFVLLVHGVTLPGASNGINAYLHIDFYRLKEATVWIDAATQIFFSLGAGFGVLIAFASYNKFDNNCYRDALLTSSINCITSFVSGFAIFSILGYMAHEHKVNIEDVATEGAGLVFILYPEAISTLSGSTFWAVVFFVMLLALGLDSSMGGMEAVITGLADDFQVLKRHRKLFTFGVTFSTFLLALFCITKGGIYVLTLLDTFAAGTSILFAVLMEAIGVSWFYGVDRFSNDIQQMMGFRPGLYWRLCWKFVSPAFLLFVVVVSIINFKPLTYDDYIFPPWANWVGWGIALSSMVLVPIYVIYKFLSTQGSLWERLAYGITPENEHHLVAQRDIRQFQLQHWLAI
Sequence of Sodium-dependent dopamine transporter (Homo sapiens) (Q01959 whole entry): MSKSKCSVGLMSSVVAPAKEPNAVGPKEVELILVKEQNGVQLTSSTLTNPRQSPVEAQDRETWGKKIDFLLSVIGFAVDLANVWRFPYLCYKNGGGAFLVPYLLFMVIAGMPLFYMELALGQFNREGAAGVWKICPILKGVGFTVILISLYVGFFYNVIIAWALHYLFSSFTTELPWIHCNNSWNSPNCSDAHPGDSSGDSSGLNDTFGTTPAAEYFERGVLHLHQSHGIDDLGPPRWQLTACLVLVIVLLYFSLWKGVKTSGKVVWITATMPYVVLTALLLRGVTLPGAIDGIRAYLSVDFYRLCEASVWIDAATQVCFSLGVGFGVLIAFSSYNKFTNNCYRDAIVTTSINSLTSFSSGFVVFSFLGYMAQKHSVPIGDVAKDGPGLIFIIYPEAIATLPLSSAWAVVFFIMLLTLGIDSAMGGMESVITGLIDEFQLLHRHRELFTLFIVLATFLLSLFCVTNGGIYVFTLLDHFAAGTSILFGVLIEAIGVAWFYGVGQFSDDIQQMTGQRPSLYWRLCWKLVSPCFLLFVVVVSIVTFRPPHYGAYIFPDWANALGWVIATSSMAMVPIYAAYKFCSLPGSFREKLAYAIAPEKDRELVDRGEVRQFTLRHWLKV

| inhibition [2] | IC50 [4] | IC50 [5] | Compound | inhibition [3] | IC5 [17] | further results |
| --- | --- | --- | --- | --- | --- | --- |
| – | – | – | CCOc1ccccc1O[C@@H](c1ccccc1)[C@@H]1CNCCO1 | – | – | IC5 [1]: > 10000 nM |
| -5% | 13.8 nM | 11.4 nM | CCn1c(=O)n([C@@H](c2ccccc2)[C@H](O)CNC)c2c(F)cccc21 | 29% | – | – |
| – | 91.9 nM | – | CNC[C@@H](O)[C@H](c1cccc(F)c1)n1c(=O)n(-c2ccccc2)c2cccc(F)c21 | – | – | inhibition [18]: 11% |
| 19% | 13.4 nM | 10.8 nM | CNC[C@@H](O)[C@H](c1ccccc1)n1c(=O)n(C(C)C)c2ccccc21 | 19% | – | – |
| 15% | 257 nM | – | CNC[C@@H](O)[C@H](c1ccccc1)n1c(=O)n(C)c2ccccc21 | 14% | – | – |
| 32% | 36.7 nM | – | CCn1c(=O)n([C@@H](c2ccccc2)[C@H](O)CNC)c2cc(F)ccc21 | 30% | – | – |
| 5% | 42.5 nM | 90 nM | CNC[C@@H](O)[C@H](c1ccccc1)n1c(=O)n(C2CCC2)c2ccccc21 | 6% | – | – |
| 1% | 56 nM | – | CNC[C@@H](O)[C@H](c1ccccc1)n1c(=O)n(C(C)(C)C)c2ccccc21 | – | – | inhibition [18]: 3% |
| – | – | – | CNCC[C@@H](Oc1ccccc1C)c1ccccc1 | – | – | IC5 [1]: 48 nM |
| 4% | 17.5 nM | 16.8 nM | CCn1c(=O)n([C@@H](c2ccccc2)[C@H](O)CNC)c2ccccc21 | – | – | Time (Rattus norvegicus [6]): 3.5 h; Activity (Rattus norvegicus [7]): 1.57 °C; Activity (Rattus norvegicus [8]): 1.82 °C; clearance [9]: 54 mL/min/kg; Cmax [10]: 306 ng/mL; Tmax [11]: 1.1 h; half-life [12]: 3.6 h; half-life [13]: 3.4 h; AUC(0-inf) [14]: 1640 ng·h/mL; AUC(0-inf) [15]: 1840 ng·h/mL; bioavailability [16]: 56% |
| 15% | 18.6 nM | – | CCCn1c(=O)n([C@@H](c2ccccc2)[C@H](O)CNC)c2ccccc21 | 6% | – | – |
| – | – | – | CNC[C@@H](O)[C@H](c1ccccc1)n1ccc2ccccc21 | – | 0.358 µM | IC5 [1]: 358 nM |
| – | > 1000 nM | – | CCNC[C@@H](O)[C@H](c1ccccc1)n1c(=O)n(C(C)C)c2ccc(F)cc21 | – | – | – |

| Compound | inhibition [2] | IC50 [4] | IC50 [5] | inhibition [3] | IC5 [17] | further results |
| --- | --- | --- | --- | --- | --- | --- |
| CNC[C@@H](O)[C@H](c1cccc(F)c1)n1c(=O)n(C(C)C)c2cccc(F)c21 | 19% | 6.9 nM | 4.1 nM | 27% | 6.32 µM | IC5 [1]: 6320 nM; Selectivity ratio (Homo sapiens): > 900; Selectivity ratio (JAR): > 500; Selectivity ratio (CHO): > 500; Time (Rattus norvegicus [6]): 6 h; Activity (Rattus norvegicus [7]): 2.44 °C; Activity (Rattus norvegicus [8]): 3.73 °C; clearance [9]: 24 mL/min/kg; Cmax [10]: 1120 ng/mL; Tmax [11]: 0.5 h; half-life [12]: 2.3 h; half-life [13]: 3.9 h; AUC(0-inf) [14]: 3650 ng·h/mL; AUC(0-inf) [15]: 7080 ng·h/mL; bioavailability [16]: 97% |
| CCCn1c(=O)n([C@@H](c2ccccc2)[C@H](O)CNC)c2cc(F)ccc21 | 44% | 39.4 nM | – | 16% | 8.32 µM | – |
| CCn1c(=O)n([C@@H](c2cccc(F)c2)[C@H](O)CNC)c2c(F)cccc21 | 8% | 10.4 nM | 4.1 nM | 11% | > 10 µM | Selectivity ratio (Homo sapiens): > 900; Selectivity ratio (JAR): > 500; Selectivity ratio (CHO): > 500 |
| CNC[C@@H](O)[C@H](c1ccccc1)n1c(=O)n(C2CCCC2)c2ccccc21 | 46% | 66.7 nM | – | 20% | 2.37 µM | – |
| CCn1c(=O)n([C@@H](c2cccc(F)c2)[C@H](O)CNC)c2ccccc21 | 15% | 7.4 nM | 6.4 nM | -2% | > 10 µM | Selectivity ratio (Homo sapiens): > 900; Selectivity ratio (JAR): > 500; Selectivity ratio (CHO): > 500; Time (Rattus norvegicus [6]): 5 h; Activity (Rattus norvegicus [7]): 2.03 °C; Activity (Rattus norvegicus [8]): 2.62 °C; Activity (Rattus norvegicus [19]): Active; Activity (Rattus norvegicus [20]): Active; Activity (Rattus norvegicus [21]): Active; Activity (Rattus norvegicus [22]): Dose-dependent effect |
| CNC[C@@H](O)[C@H](c1ccccc1)n1c(=O)n(C(C)C)c2cccc(F)c21 | 6% | 7.8 nM | – | 12% | > 10 µM | Selectivity ratio (Homo sapiens): > 900; Selectivity ratio (JAR): > 500; Selectivity ratio (CHO): > 500; Time (Rattus norvegicus [6]): 1 h; Activity (Rattus norvegicus [7]): 1.61 °C; Activity (Rattus norvegicus [8]): 2.09 °C |
